# Source: publication PMC5299597, “Evaluation of the safety, pharmacokinetics, pharmacodynamics, and drug-drug interaction potential of a selective Lp-PLA2 inhibitor (GSK2647544) in healthy volunteers” (International Journal of Clinical Pharmacology and …, 2016)
# Experiments:
# CYP3A4 [1] = target: T1, CYP3A4 (Homo sapiens, UniProt P08684); conditions: A1+S vs S, the 9 subjects who received both
# CYP3A4 [2] = target: T1, CYP3A4; experiment: clinical; conditions: plasma, oral; for AUC(0-t): AUC(0-t) of analyte; for AUC(0-t) / Cmax: geometric mean (CVb%); for Cmax: Cmax of analyte
# [3] = Study 2: safety and tolerability (adverse events); conditions: by treatment: simvastatin 10 mg SD N = 12; GSK2647544 80 mg b.i.d. 7 days + simvastatin N = 9
# [4] = design: method as in PMID 9461591; conditions: DM/HC pigs, vs untreated; cited from earlier work
# [5] = phase 2a study; cited from earlier work
# [6] = 10 mg, S = simvastatin 10 mg SD alone
# [7] = A1+S = simvastatin 10 mg SD plus GSK2647544 80 mg b.i.d. for 7 days
# [8] = P1+S = simvastatin 10 mg SD plus matched placebo b.i.d. for 7 days
# T1 sequence (P08684 whole entry): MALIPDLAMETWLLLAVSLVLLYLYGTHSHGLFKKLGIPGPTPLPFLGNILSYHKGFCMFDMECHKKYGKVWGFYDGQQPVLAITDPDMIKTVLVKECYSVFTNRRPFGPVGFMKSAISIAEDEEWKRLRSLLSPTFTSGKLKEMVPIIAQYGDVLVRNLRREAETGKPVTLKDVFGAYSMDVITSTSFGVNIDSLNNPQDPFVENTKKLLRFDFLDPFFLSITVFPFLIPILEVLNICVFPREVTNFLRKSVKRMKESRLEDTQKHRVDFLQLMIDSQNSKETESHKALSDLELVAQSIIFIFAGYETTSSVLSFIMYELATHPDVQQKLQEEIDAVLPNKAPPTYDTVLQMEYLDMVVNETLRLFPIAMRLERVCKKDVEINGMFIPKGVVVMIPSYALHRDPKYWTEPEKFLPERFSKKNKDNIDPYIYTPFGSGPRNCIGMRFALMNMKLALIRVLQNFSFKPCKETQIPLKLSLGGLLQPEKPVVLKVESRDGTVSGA
smiles,measurement,setting,value
"CCC(C)(C)C(=O)O[C@H]1C[C@@H](C)C=C2C=C[C@H](C)[C@H](CC[C@@H](O)C[C@@H](O)CC(=O)O)[C@H]21 [Simvastatin acid, simvastatin acid]","Ratio of geometric means (90% CI), AUC(0-t)",CYP3A4 [1],"3.09 (1.05, 9.03)"
same,"Ratio of geometric means (90% CI), AUC(0–∞)",CYP3A4 [1],"1.50 (0.48, 4.71)"
same,"Ratio of geometric means (90% CI), Cmax",CYP3A4 [1],"2.30 (1.46, 3.63)"
same,AUC(0-t),CYP3A4 [2]; [6],2.49 ng·h/mL
same,Cmax,CYP3A4 [2]; [6],0.504 ng/mL
same,Tmax,"CYP3A4 [2]; 10 mg, tmax of analyte, median (range), S = simvastatin 10 mg SD alone",4.04 h
same,AUC(0-t),CYP3A4 [2]; [7],7.93 ng·h/mL
same,AUC(0-t),CYP3A4 [2]; [8],2.14 ng·h/mL
same,Cmax,CYP3A4 [2]; [7],1.3 ng/mL
same,Cmax,CYP3A4 [2]; [8],0.351 ng/mL
same,Tmax,"CYP3A4 [2]; median tmax of analyte, simvastatin alone",4 h
same,Tmax,"CYP3A4 [2]; median tmax of analyte, simvastatin in combination with GSK2647544",6 h
same,Tmax,"CYP3A4 [2]; tmax of analyte, median (range), A1+S = simvastatin 10 mg SD plus GSK2647544 80 mg b.i.d. for 7 days",5.92 h
same,Tmax,"CYP3A4 [2]; tmax of analyte, median (range), P1+S = simvastatin 10 mg SD plus matched placebo b.i.d. for 7 days",5.92 h
"CCC(C)(C)C(=O)O[C@H]1C[C@@H](C)C=C2C=C[C@H](C)[C@H](CC[C@@H]3C[C@@H](O)CC(=O)O3)[C@H]21 [Simvastatin, simvastatin]",Abdominal discomfort,[3],0 n (%)
same,Abdominal distention,[3],0 n (%)
same,Any AE,[3],1 (8%) n (%)
same,Application site rash,[3],1 (8%) n (%)
same,Arthragia,[3],0 n (%)
same,Back pain,[3],0 n (%)
same,Dizziness,[3],0 n (%)
same,Eructation,[3],0 n (%)
same,Headache,[3],0 n (%)
same,Nasopharyngitis,[3],0 n (%)
same,Pain in extremity,[3],0 n (%)
same,Pollakiuria,[3],1 (8%) n (%)
CCN(CC)CCN(Cc1ccc(-c2ccc(C(F)(F)F)cc2)cc1)C(=O)Cn1c(SCc2ccc(F)cc2)nc(=O)c2c1CCC2 [darapladib],extent of immunoglobulin-G brain parenchyma penetration,[4],numerically reduced
same,total amount of brain amyloid-β peptide 1-42 deposition,[4],significantly lowered
COCCN1CCC(N(Cc2ccc(-c3ccc(C(F)(F)F)cc3)cc2)C(=O)Cn2c(SCc3cccc(F)c3F)cc(=O)c3ccccc32)CC1 [rilapladib],cognitive outcomes,[5],improved cognitive outcomes
